The nature of data set [1]: PK and blood-brain barrier permeability in mice. It is filed as in vivo. The settings on record: male ICR mice, intravenous 1 mg/kg. Here is the method: The compounds of the present disclosure were investigated for pharmacokinetic characteristics and blood-brain barrier permeability in mice.
Healthy male ICR mice were randomly grouped, 6 animals per group. For each test compound, 3 groups of animals were used. The first group of animals was used for collecting blood and brain 5 min after the administration, and the second group of animals and the third group of animals were used for cross blood collection at subsequent time points; each test compound was intravenously administered (1 mg/kg) to corresponding groups of mice, and blood sampling via submaxillary veins of the mice was carried out at different time points. Drug contents in plasma and brain tissues at different time points were measured by an LC-MS/MS method, the brain-to-blood ratio B/P was calculated by using EXCEL software, and pharmacokinetic parameters were calculated by using DAS3.0 software.

The target in another data set is δ receptor (Homo sapiens (Human), UniProt P41143). Briefly: Competitive delta receptor binding assay (3H-DADLE).
The target in a further data set is κ receptor (Homo sapiens (Human), UniProt P41145). Briefly: Competitive Kappa receptor binding assay (3H-U69593).
A further data set concerns the target μ receptor (Homo sapiens (Human), UniProt P35372). Briefly: μ receptor affinity assay (3H-DAMGO). The data set is classed as binding.
Data set [2] addresses κ-opioid receptor (Kappa) (Homo sapiens (Human), UniProt P41145). Briefly: In vitro functional assay, HTRF cAMP-Gi in CHO-K1-OPRK1 cells. It is filed as cell-based.
Setting [3] is: read-out: In vitro agonistic effects on k-opioid receptors EC50.
Where [4] appears, read: CHO-K1-OPRK1 cells, cAMP, 1 μM Forskolin, read-out: In vitro agonistic effects on k-opioid receptors EC50.
The mark [5] stands for this setting: CHO-K1-delta membranes, 3H-DADLE 4 nM, read-out: δ receptor Ki.
The mark [6] stands for this setting: CHO-K1-Kappa membranes, 3H-U69593 2 nM, read-out: κ receptor Ki.
The mark [7] stands for this setting: CHO-K1-μ membranes, 3H-DAMGO 2 nM, read-out: μ receptor Ki.

Like-named read-outs stand apart in the source and are kept apart here. Square brackets hold non-standard residues; d marks the D form. Peptide text beside a SMILES is read from it. * marks the point of attachment. Piperidin1yl(4-NH2,4-COOH) = NC1(C(=O)O)CCN(*)CC1; dPhLac = O=C(O)[C@H](O)Cc1ccccc1; X4 = COC(=O)NC1CCN(*)CC1 Bounds are passed on as bounds.

Turning to `CC(C)C[C@@H](NC(=O)[C@@H](Cc1ccccc1)NC(=O)[C@H](N)Cc1ccccc1)C(=O)N[C@H](CCCCN)C(=O)N1CCC(N)(C(=O)O)CC1` [CR845, D-Phe-D-Phe-D-Leu-D-Lys-[ω(4-aminopiperidine-4-carboxylic acid)]-OH, reference compound], the “B/P (brain-to-blood ratio)” value in data set [1] (blood and brain 5 min after administration) was 0.015. Also, in data set [1] (mouse, plasma), the AUC(0-inf) worked out at 653 ng·h/mL, the Vd is 0.6 L/kg, the clearance was 27 mL/min/kg and the peak level (Cmax) was 1620 ng/mL. For the same molecule, in data set [1] (mouse, plasma, read-out: t½ (converted)), the half-life is 15.6 min.
Consider `CC(C)C[C@@H](NC(=O)[C@@H](Cc1ccccc1)NC(=O)[C@H](O)Cc1ccccc1)C(=O)N[C@H](CCCCN)C(=O)N1CCC(N)(C(=O)O)CC1` [Compound 3] (H-[dPhLac][dF][dL][dK]-{Piperidin1yl(4-NH2,4-COOH)}), for which the figures for the Ki on δ receptor, at κ receptor and on μ receptor were greater than 1000 nM, 3.31 nM and greater than 1000 nM, respectively.
Regarding `CC(C)C[C@@H](NC(=O)[C@@H](Cc1ccccc1)NC(=O)C[C@H](N)c1ccccc1)C(=O)N[C@H](CCCCN)C(=O)N1CCC(N)(C(=O)O)CC1` [Compound 4-100, 4-amino-1-[(2R)-6-amino-2-[(2R)-2-[(2R)-2-[(3S)-3-amino-3-phenylpropionylamino]-3-phenylpropionylamino]-4-methylpentanoylamino]hexanoyl]piperidine-4-carboxylic acid], the figures for the Ki on δ receptor, on κ receptor and on μ receptor were greater than 1000 nM, 59.9 nM and greater than 1000 nM, respectively.
Consider `COC(=O)N=S1(=O)CCN(C(=O)[C@@H](CCCCN)NC(=O)[C@@H](CC(C)C)NC(=O)[C@@H](Cc2ccccc2)NC(=O)[C@H](N)Cc2ccccc2)CC1` [Compound 4B], for which, in data set [2], a half-maximal response (EC50) required 0.65 nM. In addition, the values for the Ki on δ receptor, on κ receptor and on μ receptor were greater than 1000 nM, 1.88 nM and greater than 1000 nM, respectively.
Turning to `COC(=O)NC1CCN(C(=O)[C@@H](C)NC(=O)[C@@H](CC(C)C)NC(=O)[C@@H](Cc2ccccc2)NC(=O)[C@H](N)Cc2ccccc2)CC1` [Compound 12A] (H-[dF][dF][dL][dA]-X4), a half-maximal effect in data set [2] (EC50) was put at 0.07 nM. The Ki on δ receptor was greater than 1000 nM; on κ receptor, 0.34 nM; on μ receptor, greater than 1000 nM.
As to `COC(=O)C1(N)CCN(C(=O)[C@@H](CCCCN)NC(=O)[C@@H](CC(C)C)NC(=O)[C@@H](Cc2ccccc2)NC(=O)N(C)C(CN)c2ccccc2)CC1` (some centres unmarked) [Compound 14], in data set [2], the EC50 amounted to 8.2 nM. Besides, the figures for the Ki at δ receptor, at κ receptor and at μ receptor were greater than 1000 nM, 1.1 nM and greater than 1000 nM, respectively.
Turning to `CC(C)C[C@@H](NC(=O)[C@@H](Cc1ccccc1)NC(=O)N(C)C(CN)c1ccccc1)C(=O)C[C@H](CCCCN)C(=O)N1CCC(N)(C(=O)OC(C)C)CC1` (some centres unmarked) [Compound 15], the EC50 in data set [2] (setting [3]) is 0.63 nM. For the same molecule, the inhibitory constant (Ki) at δ receptor (read-out: δ receptor Ki) was greater than 1000 nM; at κ receptor (read-out: κ receptor Ki) it was 0.83 nM; at μ receptor (read-out: μ receptor Ki) it was greater than 1000 nM.
In data set [2], `CNC(=O)NC1CCN(C(=O)[C@@H](CCCCN)NC(=O)[C@@H](CC(C)C)NC(=O)[C@@H](Cc2ccccc2)NC(=O)N(CCN)Cc2ccccc2)CC1` [Compound 17] registered an EC50 of 0.3 nM. In addition, the inhibition constant Ki at δ receptor was greater than 1000 nM; on κ receptor it was 0.44 nM; on μ receptor, greater than 1000 nM.
For `CC(C)C[C@@H](NC(=O)[C@@H](Cc1ccccc1)NC(=O)N(CCN)Cc1cccnc1)C(=O)C[C@H](CCCCN)C(=O)N1CCC(N)(C(=O)O)CC1` [Compound 18], the EC50 in data set [2] (setting [3]) came to 0.18 nM. Further, the Ki on δ receptor (read-out: δ receptor Ki) was greater than 1000 nM; at κ receptor (read-out: κ receptor Ki) it was 0.21 nM; at μ receptor (read-out: μ receptor Ki) it was greater than 1000 nM.
Take `CC(C)C[C@@H](NC(=O)[C@@H](Cc1ccccc1)NC(=O)N(CCN)Cc1cncnc1)C(=O)C[C@H](CCCCN)C(=O)N1CCC(N)(C(=O)O)CC1` [Compound 19]: the concentration giving a half-maximal response (EC50) in data set [2] (setting [3]) was 0.87 nM. In addition, the Ki on δ receptor (read-out: δ receptor Ki) is greater than 1000 nM; at κ receptor (read-out: κ receptor Ki), 0.9 nM; on μ receptor (read-out: μ receptor Ki) it was greater than 1000 nM.
As for `CN=S1(=O)CCN(C(=O)[C@@H](CCCCN)NC(=O)[C@@H](CC(C)C)NC(=O)[C@@H](Cc2ccccc2)NC(=O)N(CCN)Cc2ccccc2)CC1` [Compound 20], the EC50 in data set [2] was determined as 0.52 nM. For the same molecule, the Ki was greater than 1000 nM at δ receptor, 0.58 nM on κ receptor and greater than 1000 nM at μ receptor.
Take `CC(C)C[C@@H](NC(=O)[C@@H](Cc1ccccc1)NC(=O)N(CCN)Cc1ccccc1)C(=O)N[C@H](CCCCN)C(=O)N1CCC2(CC1)OC(=O)Nc1ncccc12` [Compound 22]: the EC50 in data set [2] (setting [4]) worked out at 0.36 nM. Besides, the Ki on δ receptor (setting [5]) is greater than 1000 nM; on κ receptor (setting [6]), 0.35 nM; on μ receptor (setting [7]), greater than 1000 nM.
For `CC(C)C[C@@H](NC(=O)[C@@H](Cc1ccccc1)NC(=O)N(CCN)Cc1ccccc1)C(=O)N[C@H](CCCCN)C(=O)N1CCC(NC(=O)OC2CCOCC2)CC1` [Compound 24], it took 0.27 nM to reach a half-maximal effect in data set [2] (EC50). In addition, the Ki was greater than 1000 nM on δ receptor, 0.36 nM at κ receptor and greater than 1000 nM at μ receptor.
With `CNS(=O)(=O)NC1CCN(C(=O)[C@@H](CCCCN)NC(=O)[C@@H](CC(C)C)NC(=O)[C@@H](Cc2ccccc2)NC(=O)N(CCN)Cc2ccccc2)CC1` [Compound 26], the EC50 in data set [2] (setting [4]) was 0.25 nM. For the same molecule, the values for the inhibition constant (Ki) at δ receptor (setting [5]), at κ receptor (setting [6]) and on μ receptor (setting [7]) were greater than 1000 nM, 0.31 nM and greater than 1000 nM, respectively.
With `CNCCN(Cc1ccccc1)C(=O)N[C@H](Cc1ccccc1)C(=O)N[C@H](CC(C)C)C(=O)C[C@H](CCCCN)C(=O)N1CCC(N)(C(=O)O)CC1` [Compound 28], the Ki was greater than 1000 nM on δ receptor (read-out: δ receptor Ki), 3.31 nM on κ receptor (read-out: κ receptor Ki) and greater than 1000 nM at μ receptor (read-out: μ receptor Ki).
Regarding `CC(C)C[C@@H](NC(=O)[C@@H](Cc1ccccc1)NC(=O)N(C)C(CN)c1ccccc1)C(=O)N[C@H](CCCCN)C(=O)N1CCC2(CC1)CNC(=O)c1ncccc12` (some centres unmarked) [Compound 32], a half-maximal response in data set [2] (EC50) required 0.65 nM. Also, the Ki on δ receptor was greater than 1000 nM; on κ receptor it was 0.58 nM; on μ receptor, greater than 1000 nM.
The molecule `CC(C)C[C@@H](NC(=O)[C@@H](Cc1ccccc1)NC(=O)N(C)C(CN)c1ccccc1)C(=O)N[C@H](CCCCN)C(=O)N1CCC(NC(=O)OC2CCOCC2)CC1` (some centres unmarked) [Compound 33] came in with an EC50 in data set [2] of 0.81 nM. Moreover, the results for the Ki on δ receptor, at κ receptor and at μ receptor were greater than 1000 nM, 0.56 nM and greater than 1000 nM, respectively.
Take `CC(C)C[C@@H](NC(=O)[C@@H](Cc1ccccc1)NC(=O)N(CCN)Cc1ccccc1)C(=O)N[C@H](CCCCN)C(=O)N1CCC(F)(C(=O)O)CC1` [Compound 34]: the EC50 in data set [2] came out at 0.71 nM. Besides, the Ki on δ receptor was greater than 1000 nM; at κ receptor it was 0.6 nM; at μ receptor, greater than 1000 nM.
Consider `CC(C)C[C@@H](NC(=O)[C@@H](Cc1ccccc1)NC(=O)N(CCN)Cc1ccccc1)C(=O)N[C@H](CCCCN)C(=O)N1CCC(C#N)CC1` [Compound 35], for which the EC50 in data set [2] worked out at 0.17 nM. Moreover, the results for the Ki on δ receptor, at κ receptor and at μ receptor were greater than 1000 nM, 0.18 nM and greater than 1000 nM, respectively.
In data set [2], `CC(C)C[C@@H](NC(=O)[C@@H](Cc1ccccc1)NC(=O)N(C)C(CN)c1ccccc1)C(=O)N[C@H](CCCCN)C(=O)N1CCS(=O)(=O)CC1` (some centres unmarked) [Compound 36] displayed an EC50 of 0.35 nM. Moreover, the figures for the Ki at δ receptor, at κ receptor and on μ receptor were greater than 1000 nM, 0.98 nM and greater than 1000 nM, respectively.
Take `CC(C)C[C@@H](NC(=O)[C@@H](Cc1ccccc1)NC(=O)N(C)C(CN)c1ccccc1)C(=O)N[C@H](CCCCN)C(=O)N1CCOCC1` (some centres unmarked) [Compound 37]: in data set [2], the EC50 worked out at 0.39 nM. In addition, the Ki at δ receptor was greater than 1000 nM; at κ receptor, 0.41 nM; at μ receptor, greater than 1000 nM.
